Earlier results in patent US20190142979A1, “CONTRAST MEDIUM AND METHODS INVOLVED IN PREPARATION FOR THE DETERMINATION OF PATENCY OF CONDUITS” (priority 2016, published 2019).

SMILES: CCN(CC)CC(=O)Nc1c(C)cccc1C [Lidocaine]
- alteration of fertility levels (post administration): not reported
- safety (upon injection into uterine cavity or into peritoneal cavity): highly safe
